Assay results published in patent publication US20040102454A1, “Phenylahistin and the phenylahistin analogs, a new class of anti-tumor compounds” (priority 1998, published 2004).
pIC50: −log10 of the molar value. Converted amounts (≈) assume the structure as drawn. Where two headings read alike, the source gives them in different places.

What was measured:
[1] = tested on: Microtubule protein from bovine brain; test: Microtubule protein polymerization assay (turbidity); assay type: biochemical
Experimental: Microtubule protein was prepared from bovine brain tissue by two cycles of assembly and disassembly according to the method of Tiwari, S. C. et al. Anal. Biochem, (1993), 215, 96-103. Tubulin was purified from microtubule protein by phosphocellulose chromatography see Algaier, J. et al. Biochim. Biophys. Acta, (1988), 954, 235-43, and tubulin purity was evaluated by polyacrylamide gel electrophoresis, as in Laemmli, U.K., Nature, (1970), […], 680-85. […] Protein concentrations were determined using the Coomassie® Protein Assay Reagent from Pierce (Rockford, Ill.).
Polymerization of microtubule protein was monitored by an increase in turbidity at 37° C. in microtubule assembly buffer containing 100 mM MES, 0.5 mM MgCl2, 1 mM EGTA and 1 mM GTP. See Johnson, K. A. et al., J. Mol. Biol., (1977), 117, 1-31. Polymerization of purified tubulin was measured using the same method except the microtubule assembly buffer contained 4 M glycerol. See Lee, J. C. et al., Biochemistry, (1975), 14, 5183-87. Microtubule protein and tubulin polymerization was initiated by a temperature shift from 0° C. to 37° C. and turbidity was measured on a DU-20 thermocontrolled spectrophotometer from Beckman (Fullerton, Calif.) at 360 nm. Drugs were dissolved in dimethyl sulfoxide (DMSO), which was used in all experiments at a final concentration of 2% (v/v).
For this example, the microtubule protein polymerization assay was performed as follows. Microtubule protein was prepared from bovine brain tissue by two cycles of assembly and disassembly. Polymerization of microtubule protein was monitored by an increase in turbidity at 37° C. in microtubule assembly buffer containing 100 mM MES, 0.5 mM MgCl2, 1 mM EGTA and 1 mM GTP. The polymerization of microtubule protein was initiated by a temperature shift from 0° C. to 37° C. Turbidity was measured on a thermo-controlled spectrophotometer (Beckman DU-20, Fullerton, Calif.) at 360 nm. Compounds were dissolved in DMSO, which was used in all experiments at a final concentration of 2% (v/v).

P388 cells = test: P388 proliferation, Alamar Blue assay; assay type: cell-based, murine
Experimental: For this example, the Alamar Blue™ assay was performed as follows. Exponentially growing P388 cells were seeded into 96-well tissue culture plates (5×10^3 cells/100 μl/well) and cultured in RPMI 1640 medium supplemented with 10% fetal bovine serum for 16 h. Compounds (DMSO solution) were then added to each well at various concentrations, and the cells were cultured for an additional 48 h. Living cells were counted using Alamar Blue™ (BioSource International, Camarillo, Calif.), according to the method of Ahmed, S. A. et al., J. Immunol. Methods, 170, 211 (1994).

C. albicans 10231 = test: Antifungal susceptibility testing, broth dilution (NCCLS M38-A); assay type: cell-based, Candida albicans; conditions: C. albicans 10231; for MIC: 80% reduction in turbidity
Experimental: (§1) Antifungal susceptibility testing was accomplished according to the methods outlined in the National Committee for Clinical Laboratory Standards, M38-A “Reference Method for Broth Dilution Antifungal Susceptibility Testing of Conidium-Forming Filamentous Fungi; Approved Standard.” This includes testing in RPMI-1640 with glutamine and without bicarbonate, an inoculum size of 0.4-5×10^4, and incubation at 30 or 35° C. for 48 hours. […] Drug concentrations were 0.03-16 μg/ml for the investigational compounds, 0.015-8 μg/ml for itraconazole and griseofulvin.
(§2) The minimum lethal concentration (MLC) was determined by plating […] from the MIC concentration and each concentration above the MIC. […] When a MIC was obtained, a minimum fungicidal concentration (MFC) was determined to assess the fungistatic/fungicidal nature of the compound. […] The compound is scored as fungistatic if the cells are able to resume growth and fungicidal if no regrowth is possible because the compound had killed the organisms.

C. albicans 90028 = test: as above; assay type: cell-based, Candida albicans; conditions: C. albicans 90028; for MIC: 80% reduction in turbidity
Experimental: as §1, §2

C. glabrata = test: as above; assay type: cell-based, Candida glabrata; conditions: C. glabrata; for MIC: 80% reduction in turbidity
Experimental: as §1, §2

[2] = tested on: MES-SA DX (Taxol Resistant) human uterine sarcoma tumor cell line; test: Drug resistant cell line pair, cytotoxicity; assay type: cell-based
Excerpt: MES-SA (Taxol Sensitive) and MES-SA DX (Taxol Resistant). This cell line expresses elevated mdr-1 mRNA and P-glycoprotein (an extrusion pump mechanism). Pretreatment with cyclosporin-A (CsA) blocks P-glycoprotein and reinstates activity in the resistant cell line for those compounds for which the resistance is due to elevated P-glycoprotein.

[3] = microtubule protein 1.5 mg/mL (Table 9), read-out: IC50 Microtubule Protein polymerization
[4] = Mus musculus, P388, means (±SEM) of three experiments (Table 9), read-out: IC50 P388 proliferation
[5] = Candida albicans, read-out: MIC
[6] = Candida albicans, read-out: MFC
[7] = microtubule protein 1.5 mg/ml (Table 4), read-out: IC50 for Microtubule Protein Polymerization
[8] = Alamar Blue assay (Table 4), read-out: IC50 for P388 Proliferation
[9] = means (±SEM) of three experiments (Table 9), read-out: IC50 P388 proliferation

`O=C1NC(Cc2ccccc2)C(=O)NC1=Cc1c[nH]cn1` [Compound 19, Cyclo-[dehydrohistidinyl-L-phenylalanine]] was tested, and the “inhibition percentage at 200 μM, microtubule protein polymerization” value (shortened to “inhibition percentage at 200 μM”) [1] was 11%, the pIC50 [1, 3] was less than 3.70 and the pIC50 (P388 cells; [4]) was less than 3.70.
With `CCCCNC(=O)n1c(NC(=O)OC)nc2ccccc21` [benomyl] the MIC (C. albicans 10231; [5]) was 64 µg/mL (≈ 220 µM), the MFC (C. albicans 10231; [6]) was greater than 512 µg/mL and the MIC (C. albicans 90028; [5]) was 64 µg/mL (≈ 220 µM). For the same compound, the MFC (C. albicans 90028; [6]) was greater than 512 µg/mL, the MIC (C. glabrata; Nakaseomyces glabratus, read-out: MIC) was 64 µg/mL (≈ 220 µM) and the MFC (C. glabrata; Nakaseomyces glabratus, read-out: MFC) was greater than 512 µg/mL.
With “(−)-Cyclo-[5-(1,1-dimethylpropyl)histidinyl-L-phenylalanine] [Compound 5]” the pIC50 [1, 3] was less than 3.70, the pIC50 [1, 7] was less than 3.70 and the pIC50 (P388 cells; [8]) was less than 3.70. The pIC50 (P388 cells; [9]) was less than 3.70.
`C[C@@H]1[C@H](O)[C@@H](C)/C=C/C=C/C=C/C=C/C=C/C=C/C=C/[C@H](O[C@@H]2O[C@H](C)[C@@H](O)[C@H](N)[C@@H]2O)C[C@@H]2O[C@](O)(C[C@@H](O)C[C@@H](O)[C@H](O)CC[C@@H](O)C[C@@H](O)CC(=O)O[C@H]1C)C[C@H](O)[C@H]2C(=O)O` [amphotericin B] showed an MFC (C. albicans 10231) of 0.5 µg/mL (≈ 0.541 µM), an MIC (C. albicans 10231) of 0.5 µg/mL (≈ 0.541 µM) and an MFC (C. albicans 90028) of 0.5 µg/mL (≈ 0.541 µM). The MIC (C. albicans 90028) was 0.5 µg/mL (≈ 0.541 µM), the MFC (C. glabrata) was 1 µg/mL (≈ 1.08 µM) and the MIC (C. glabrata) was 1 µg/mL (≈ 1.08 µM).
For `C=CC(C)(C)c1c(/C=C2\NC(=O)[C@H](Cc3ccccc3)NC2=O)ncn1C` [Compound 14, (−)-Cyclo-[(N^im-methyl-5-(1,-dimethyl-2-propenyl))dehydrohistidinyl-L-phenylalanine]], the “times less active than (−)-phenylahistin” value [1] was “about 5 times”, the pIC50 [1, 3] was 4.00 and the pIC50 (P388 cells; [4]) was 6.02.
For “(+)-Cyclo-[5-(1,1-dimethylpropyl)dehydrohistidinyl-L-phenylalanine] [Compound 4]”, the “inhibition percentage at 200 μM” value [1] was 12%, the pIC50 [1, 3] was less than 3.70 and the pIC50 [1, 7] was less than 3.70. The pIC50 (P388 cells; [8]) was 4.72 and the pIC50 (P388 cells; [9]) was 4.72.
`O=C1CNC(=O)C(Cc2ccccc2)N1` [Compound 7, Cyclo-[glycinyl-L-phenylalanine]] gave a pIC50 [1, 7] of less than 3.70 and a pIC50 (P388 cells; Mus musculus, P388, Alamar Blue assay (Table 4), read-out: IC50 for P388 Proliferation) of less than 3.70.
`COc1cccc2c1C(=O)c1c(O)c3c(c(O)c1C2=O)C[C@@](O)(C(=O)CO)C[C@@H]3O[C@H]1C[C@H](N)[C@H](O)[C@H](C)O1` [doxorubicin, reference compound] was tested, and the “reduced susceptibility of the MES-SA DX cell line” value [2] was 34 fold.
In the case of `Cc1[nH]cnc1C=C1NC(=O)[C@H](Cc2ccccc2)NC1=O` [Compound 20, Cyclo-[(5-methyl)dehydrohistidinyl-L-phenylalanine]], the “inhibition percentage at 200 μM” value [1] was 9%, the pIC50 [1, 3] was less than 3.70 and the pIC50 (P388 cells; [9]) was 4.82.
Work on “(+)-Cyclo-[5-(1,1-dimethylpropyl)histidinyl-L-phenylalanine] [Compound 6]” yielded a pIC50 [1, 3] of less than 3.70, a pIC50 [1, 7] of less than 3.70 and a pIC50 (P388 cells; [8]) of less than 3.70. The pIC50 (P388 cells; [9]) was less than 3.70.
For `COc1cc([C@@H]2c3cc4c(cc3[C@@H](O[C@@H]3O[C@@H]5CO[C@@H](C)O[C@H]5[C@H](O)[C@H]3O)[C@H]3COC(=O)[C@H]23)OCO4)cc(OC)c1O` [etoposide, reference compound], the “reduced susceptibility of the MES-SA DX cell line” value [2] was 60 fold.
In the case of `O=C1N[C@@H](Cc2cnc[nH]2)C(=O)N[C@H]1Cc1ccccc1` [Cyclo-His-Phe, reference compound], the pIC50 [1, 3] was less than 3.70, the pIC50 [1, 7] was less than 3.70 and the pIC50 (P388 cells; [8]) was less than 3.70. The pIC50 (P388 cells; [9]) was less than 3.70.
“(−)-Cyclo-[5-(1,1-dimethylpropyl)dehydrohistidinyl-L-phenylalanine] [Compound 3]” gave a pIC50 [1, 3] of 4.52, a pIC50 [1, 7] of 4.52 and a pIC50 (P388 cells; [8]) of 6.64. The pIC50 (P388 cells; [9]) was 6.64.
`C=CC(C)(C)c1c(C=C2C(=O)N(C)[C@@H](Cc3ccccc3)C(=O)N2C)ncn1C` [Compound 15, (−)-Cyclo-N, N′-dimethyl-[(N^im-methyl-5-(1,1-dimethyl-2-propenyl))dehydro-histidinyl-L-phenylalanine]] showed a pIC50 [1, 3] of less than 3.70 and a pIC50 (P388 cells; [9]) of 3.80.
